We go through 1 molecule from EP1955072B1, “FLEXIBLE CARBOHYDRATE-BEARING POLYMER” (PreciSense A/S, priority 2005, dated 2007).

Molecules are shown by their SMILES.

In assay [1] the target is T1, biotinylated MBL (Mannan Binding Lectin) (Homo sapiens, UniProt P11226). The assay is described as follows: ELLA (Enzyme Linked Lectin Assay), glucose inhibition of MBL binding to coated antigen, Examples A8/A8a. The method, then:
Biotinylated MBL was prepared as follows. Biotin-NHS (20 µl, 7 mg/ml in DMSO, -10-15 eq. per MBL monomer) was added to a solution of MBL (3 ml, 0.53 mg) in PBS (3 mL). The solution was gently stirred for 2 h, then transferred to a dialysis tube (MWCO 10-12K) and dialysed against TBS (2 × 1 L) over the course of 24 h. The resulting biotinylated MBL (0.2 mg/ml) in TBS was used without further purification.
The wells were then washed (2x200 µl PBS). ConA-HRP 1% (w/v)(100 µl) in PBS was added and incubated for 1 h. Plates were then emptied and washed (3x200 µl PBS). […] The wells were then washed (2x200 µl TBS). […] Plates were then emptied and washed (3x200 µl TBS).

For assay [2], the target named is T1, biotinylated MBL (Mannan Binding Lectin). The assay is described as follows: ELLA (Enzyme Linked Lectin Assay), glucose inhibition of MBL binding to coated antigen, Examples C3/C5. The settings on record: glucose as inhibitor, 1.25 mM CaCl2, value only valid for this particular assay. How it is done:
The wells were then washed (2 x 200 µl TBS).
Plates were then emptied and washed (3 x 200 µl TBS). […] The results are shown in the graphs in Fig. 1. High absorptions correspond to binding of MBL to the ligand. Baseline absorption corresponds to no binding of MBL to the ligand. […] Therefore, in an optimization step (Example C4) a range of mannose co-polymers having mannose monomer unit contents within the range of 30 % to 50 % were synthesized.
An ELLA assay was carried out as described in Example C3. […] From the inhibition curves, it is possible to calculate an IC50 value for aminodextran and the optimized ligand (Table 6). (The IC50 value is only valid for this particular assay.) TABLE 6

T1 sequence (P11226 21-248): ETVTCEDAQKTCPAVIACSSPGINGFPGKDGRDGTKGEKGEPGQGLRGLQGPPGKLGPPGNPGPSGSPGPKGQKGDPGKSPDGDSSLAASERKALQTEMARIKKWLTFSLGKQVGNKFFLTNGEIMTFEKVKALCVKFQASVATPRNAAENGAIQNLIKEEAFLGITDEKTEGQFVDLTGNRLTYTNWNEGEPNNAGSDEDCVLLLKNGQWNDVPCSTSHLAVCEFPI

In general, IC50 refers to the midpoint of a concentration-inhibition curve. In the case of `OC[C@H]1OC(O)[C@H](O)[C@@H](O)[C@@H]1O` (stereo partly drawn) [glucose], the IC50 was 9.7 mM in assay [1] (coated antigen: AmDex 150K (aminodextran), dilutions of glucose 100 mM to 0 mM, read-out: MBL affinity (IC50) or Abs(0 mM Glc)); 50 to 80 mM in assay [1] (coated antigen: Polymer of Example A4a, dilutions of glucose 100 mM to 0 mM, read-out: MBL affinity (IC50) or Abs (0 mM Glc)); 16.8 mM in assay [1] (glucose inhibiting MBL binding to plate coated with 40 mol% mannose polymer of Example A4 (Example A8), TBS, 1.25 mM CaCl2, pH 7.4, read-out: IC50); 50 to 80 mM in assay [1] (glucose inhibiting MBL binding to plate coated with 80 mol% mannose polymer of Example A4a, TBS, 1.25 mM CaCl2, pH 7.4, read-out: IC50); 13 mM in assay [2] (coated antigen: 35 mol% Man Copolymer); 23 mM in assay [2] (coated antigen: Aminodextran).
